Measurements reported in patent US12233053B2, “Adenosine A3 receptor antagonists for treating aging skin and wounds” (ORADIN PHARMACEUTICAL LTD., priority 2021, dated 2025).

Assays:
[1] = test system: HaCaT keratinocyte cells; conditions: 10 μM or lower concentrations, 24 hours
Procedure: (§2) Cell viability was then measured using Alamar blue (AB) assay according to the manufacturer's instructions. Briefly, the cells were rinsed with PBS, and 0.2 ml of an AB solution (10% (v/v) of AB dye in DMEM) were added to each well. After incubation of 3 hours, AB fluorescence was quantified at the excitation and emission wavelengths of 540 and 595 nm, respectively, using a Tecan Genios microplate reader. The results are given as mean±SD. Statistical significance was determined by Student T-Test.

[2] = test system: 3T3 fibroblast cells
Procedure: as §2

[3] = test system: HaCaT cells; experiment: Differentiation markers PAR-2 and Filaggrin in keratinocytes (immunostaining); format: cell-based, human; conditions: 10 μM, 24 hours
Procedure: HaCaT cells were grown in DMEM containing 10% FCS for 24 hours. The cells were then treated with 10 μM MRS-1523 for 24 hours, washed with PBS, and fixed with 4% paraformaldehyde for 1 hour. Fixed cells were washed and incubated with the following primary antibodies (Sigma): anti-PAR-2 (Clone SAM11 produced in mouse, reactive to mouse and human) followed by secondary antibodies, anti-mouse antibodies conjugated to FITC, or anti-Filaggrin (FLG; produced in rabbit) followed by secondary antibodies, anti-rabbit antibodies conjugated to Alexa Fluor® 488.

[4] = test system: B16-F1 melanocytes
Procedure: HaCaT cells or 3T3 cells (2×10^4) were incubated in 96-well Elisa plates in DMEM containing 10% fetal calf serum (FCS) in the presence of increasing concentrations of MRS-1523 for 24 hours. Cell viability was then measured using Alamar blue (AB) assay according to the manufacturer's instructions. Briefly, the cells were rinsed with PBS, and 0.2 ml of an AB solution (10% (v/v) of AB dye in DMEM) were added to each well. After incubation of 3 hours, AB fluorescence was quantified at the excitation and emission wavelengths of 540 and 595 nm, respectively, using a Tecan Genios microplate reader. The results are given as mean±SD. Statistical significance was determined by Student T-Test.

[5] = test system: HaCaT keratinocyte cells; experiment: Scratch assay (gap size, cell migration), keratinocytes; format: cell-based, human; conditions: 24 hours
Procedure: (§1) Keratinocyte HaCaT cells or 3T3 fibroblast cells (10^6 cells) were grown in 35 mm petri dishes in DMEM containing 10% FCS overnight. Thereafter, the cell cultures were scratched using 20 μl pipet tip in the middle of the culture plate, the cells were washed three times, and then MRS-1523 (at concentrations of 10 nM to 10 μM in DMEM containing 10% FCS) was added to each scratched plate and incubated with the cells for 24 hours. The gap size in plates of MRS-1523 treated cells was compared to the gap size in plates of control cells which were scratched and incubated for 24 hours in DMEM containing 10% FCS in the absence of MRS-1523. The results are presented as mean±SD. Statistical significance was determined by Student T-test.

[6] = test system: 3T3 fibroblast cells; experiment: Scratch assay (gap size, cell migration), fibroblasts; format: cell-based; conditions: 24 hours
Procedure: as §1

[7] = test system: B16-F1 melanocytes; experiment: Scratch assay (gap size, cell migration), melanocytes; format: cell-based; conditions: 10 μM, 24 hours, B16-F1, FIG. 4E
Procedure: FIGS. 4A-E show bar graphs of the gap size in a scratch assay of different cell types in culture. FIGS. 4A-B show bar graphs of the gap size of HaCaT keratinocyte cells (A) and 3T3 fibroblast cells (B) 24 hours after treatment with increasing concentrations of MRS-1523 in the scratch assay. FIGS. 4C-E show bar graphs of the gap size of HaCAT cells (FIG. 4C), 3T3 fibroblasts (FIG. 4D), and B16-F1 melanocytes (FIG. 4E) after 24-hour treatment with 10 μM MRS-1523 in the scratch assay. *p<0.05, **p<0.01 by Student T-test.
as §1

[8] = test system: 3T3 fibroblast cells; experiment: Collagen-1 and F-actin expression in fibroblasts (confocal fluorescence); format: cell-based; conditions: 10 μM, 24 hours
Procedure: The effect of MRS-1523 on collagen level in fibroblasts in culture was next examined. 3T3-fibroblast cells were grown in DMEM containing 10% FCS for 24 hours, and then were treated with 10 μM MRS-1523 for additional 24 hours. Thereafter, the presence of collagen or F-actin was evaluated as follows: the cells were incubated with rabbit anti-collagen-1 antibodies, and then with Alexa Fluor® 488-conjugated goat anti-rabbit antibodies to detect collagen-1 (green staining). Detection of F-actin was performed by F-actin-Phalloidin-staining (red staining). Cell nuclei were stained with 4′,6-diamidino-2-phenylindole (DAPI; blue staining).

[9] = test system: skin explants; experiment: Fibroblast and collagen staining of skin explants (H&E, Fontana-Masson); design: species or system human; conditions: 10 μM, 12 days
Procedure: Skin explants were treated with MRS-1523 (10 μM) for 12 days. Thereafter, the skin explants were stained with hematoxylin and eosin (H&E; FIGS. 5A and 5C) or with Fontana-Masson (FIGS. 5B and 5D).

SMILES: CCCOC(=O)c1c(-c2ccccc2)nc(CC)c(C(=O)SCC)c1CCC [MRS-1523, 3-propyl-6-ethyl-5[(ethylthio)carbonyl]-2-phenyl-4-propyl-3-pyridine carboxylate]
- stimulation of keratinocyte proliferation [1]: 8-16%
- toxic effect on fibroblasts [2]: did not induce any toxic effect
- fibroblast proliferation ([2]; 10 μM, 24 hours, 3T3): slight but significant increase
- expression of Filaggrin (FLG) vs control untreated cells [3]: decrease
- expression of PAR-2 vs control untreated cells [3]: decrease
- toxic effect on melanocyte cells [4]: did not induce any toxic effect
- melanocyte proliferation ([4]; 24 hours, B16-F1): promoted their proliferation
- gap size vs control cells (cell migration) ([5]; 0.01 μM-10 μM, FIG. 4A): significant reduction in the gap size
- cell migration ([5]; 10 μM, FIG. 4C): significantly stimulated
- gap size vs control cells (cell migration) ([6]; 0.01 μM-10 μM, 3T3, FIG. 4B): significant reduction in the gap size
- cell migration ([6]; 10 μM, 3T3, FIG. 4D): significantly stimulated
- melanocytes migration [7]: attenuated
- expression of F-actin vs control cells [8]: not increased
- expression of collagen-1 vs control untreated fibroblasts [8]: increased expression
- collagen levels in the dermis vs untreated skin explants [9]: increase
- fibroblast levels in the dermis vs untreated skin explants [9]: increase
